{"source": "paper PMC9864219", "about": "“Chemodiversity and Anti-Leukemia Effect of Metabolites from Penicillium setosum CMLD 18” (Metabolites, 2022)", "key": {"L1210 cells": {"system": "L1210 cells", "design": "method as in PMID 6320499", "settings": "read-out: IC50 inhibiting L1210 cells; cited from earlier work"}, "Kasumi-1 [1]": {"system": "Kasumi-1", "assay": "Resazurin cell viability assay, Kasumi-1", "assay_type": "cell-based, human", "settings": "for cell viability: Kasumi-1, 100 μM, 48 h, resazurin (Figure 5A)", "text": "(§1) Human leukemic cell lines (Kasumi-1, KG-1, MOLT-4, and Jurkat) were obtained from the American Type Culture Collection (ATCC). KG-1 cells were maintained in Iscove’s modified Dulbecco’s medium (IMDM) supplemented with 20% fetal bovine serum (FBS) (Cultilab, Campinas, Brazil), according to criteria adopted by the cell bank (https://www.atcc.org/products/ccl-246#detailed-product-information) accessed on 10 November 2021, whereas the other lineages were maintained in Roswell Park Memorial Institute medium (RPMI 1640) (Sigma Aldrich, St. Louis, MI, USA) supplemented with 10% FBS. All cells were cultured in a medium containing 100 U/mL penicillin (Sigma Aldrich, St. Louis, MI, USA) and 100 μg/mL streptomycin (Sigma Aldrich, St. Louis, MI, USA) and in a humidified incubator containing 5% CO2 at 37 °C. Passage numbers for all leukemic cell lines were between 3 and 6.\n(§2) A resazurin assay (Sigma Aldrich, St. Louis, MI, USA) was used to screen and assess the activity of extracts, fractions, and isolated compounds against leukemic cell lines. Briefly, 10^5 cells/mL were seeded in 96-well plates containing supplemented medium. Cells were treated in the presence or absence of compounds for 48 h using a high concentration (100 µg/mL or 100 µM to isolated compounds) or a concentration–response curve (100, 50, 25, 12.5, 6.25, 3.12, 1.56, and 0.78 µM) after 24 h of treatment with isolated compounds was constructed. After treatment, the cell culture medium was removed, and 100 µL of medium with 10% Resazurin solution was added; after 4 h of incubation, the fluorescence was measured (excitation 530 nm, emission 590 nm) in a FlexStation 3 microplate reader (Molecular Devices, San Jose, CA, USA). Each experiment was performed in triplicate."}, "Jurkat [2]": {"system": "Jurkat", "assay": "Resazurin cell viability assay, Jurkat", "assay_type": "cell-based, human", "settings": "for cell viability: 100 μM, 48 h, resazurin (Figure 5B)", "text": "as §1, §2"}, "Jurkat [3]": {"system": "Jurkat", "design": "method as in PMID 28509552", "settings": "Alamar Blue, 72 hrs; cited from earlier work"}, "K-562": {"system": "K-562", "design": "method as in PMID 28509552", "settings": "Alamar Blue, 72 hrs; cited from earlier work"}, "Hela": {"system": "Hela", "design": "method as in PMID 28509552", "settings": "Alamar Blue, 72 hrs; cited from earlier work"}, "[4]": {"target": "ACL, an ATP citrate lyase", "design": "method as in PMID 27997879", "settings": "read-out: IC50 inhibitory activity against ACL; cited from earlier work"}, "normal PBMC cells": {"system": "normal PBMC cells", "assay": "Resazurin cell viability assay, normal PBMC", "assay_type": "cell-based, human", "settings": "concentration-response curve, 24 h", "protocol": "Peripheral blood mononuclear cells (PBMCs) were obtained from three healthy donors. Human monocytes were collected from healthy donors after informed patient consent was obtained. Separation of mononuclear cells was performed by gradient centrifugation methods using Ficoll Histopaque-1077 (1.077 g/cm^3) (Sigma Aldrich, St. Louis, MI, USA) following the manufacturer’s instructions. The use of human samples was approved by the local Ethical Committee of the Universidade Federal de Mato Grosso do Sul (CAAE35853720.2.0000.0021). Cells were maintained in IMDM supplemented with 20% FBS, 100 U/mL penicillin, and 100 μg/mL streptomycin in a humidified atmosphere at 37 °C in 5% CO2.\nA resazurin assay (Sigma Aldrich, St. Louis, MI, USA) was used to screen and assess the activity of extracts, fractions, and isolated compounds against leukemic cell lines. Briefly, 10^5 cells/mL were seeded in 96-well plates containing supplemented medium. […] After treatment, the cell culture medium was removed, and 100 µL of medium with 10% Resazurin solution was added; after 4 h of incubation, the fluorescence was measured (excitation 530 nm, emission 590 nm) in a FlexStation 3 microplate reader (Molecular Devices, San Jose, CA, USA). […]"}, "Kasumi-1 [5]": {"system": "Kasumi-1", "assay": "Annexin V-FITC/7-AAD flow cytometry assay, Kasumi-1", "assay_type": "cell-based, human", "settings": "Kasumi-1, 50 μM, 24 h", "protocol": "(§3) An Annexin V-FITC/7-AAD double staining assay was performed to evaluate the proapoptotic effect of 10. Kasumi-1 and Jurkat cells (10^5/mL) were treated for 24 h with EC50, 50, or 50 µM 10, respectively, or Staurosporine (1 µM) (Sigma Aldrich, St. Louis, MI, USA). Then, the cells were resuspended in annexin binding buffer (0.14 M NaCl, 2.5 mM CaCl2, 0.01 M HEPES, pH 7.4) and incubated at room temperature with 1 μL and 2 μL of annexin V-FITC and 7-AAD (Becton Dickinson, Covington, GA, USA), respectively, for 30 min. Data were analyzed using FlowJo V10 (Becton Dickinson—BD, USA) software; 20,000 events were collected per sample."}, "Jurkat [6]": {"system": "Jurkat", "assay": "Annexin V-FITC/7-AAD flow cytometry assay, Jurkat", "assay_type": "cell-based, human", "settings": "50 μM, 24 h", "protocol": "as §3"}, "[7]": {"system": "cleaved caspase-3 in Kasumi-1", "assay": "Intracellular labeling of cleaved caspase-3 by flow cytometry, Kasumi-1", "assay_type": "cell-based, human", "settings": "Kasumi-1, 50 μM, 24 h", "protocol": "(§4) Kasumi-1 and Jurkat cells (10^5/mL) were treated for 24 h with EC50, 50, or 50 µM 10, respectively. Then, cells were fixed with BD Cytofix (BD Biosciences, Mississauga, ON, Canadá) for 15 min, washed with BD Perm/Wash buffer, and permeabilized with Perm Buffer III (BD, USA) for 30 min at room temperature. In order to label cleaved caspase-3 protein (Cell Signaling, Danvers, MA, USA), cells were incubated for 1 h with primary antibody (1:800). Anti-rabbit IgG secondary antibodies conjugated with Alexa Fluor 488 (Thermo Fisher Scientific, Waltham, MA, USA) (1:1000) were incubated for at least 40 min, and the fluorescence was measured using an Accuri C6 flow cytometer and FlowJo software to analyze the results; 20,000 events were collected per sample. Protein analyses were performed using GM fluorescence intensity."}, "[8]": {"system": "cleaved caspase-3 in Jurkat", "assay": "Intracellular labeling of cleaved caspase-3 by flow cytometry, Jurkat", "assay_type": "cell-based, human", "settings": "50 μM, 24 h", "protocol": "as §4"}, "Kasumi-1 [9]": {"system": "Kasumi-1", "assay": "Cell cycle analysis (PI) and cell count, Kasumi-1", "assay_type": "cell-based, human", "settings": "Kasumi-1, 10 μM, 72 h", "protocol": "(§5) The distribution of cell cycle phases was determined by propidium iodide (PI) staining and flow cytometry analysis. Kasumi-1 and Jurkat cells (10^5/mL) were treated with 10 (10 μM or 1 μM, respectively) for 72 h. Then, the cells were fixed and permeabilized as previously described and treated with 4 μg/mL RNase (Sigma Aldrich, St. Louis, MI, USA) for 45 min at 37 °C. For DNA labeling, cells were incubated with 5 μg/mL of PI (Sigma Aldrich, St. Louis, MI, USA). Percentages of cells within cell cycle compartments (G1/G0, S, and G2/M) were performed using an Accuri C6 flow cytometer (BD Biosciences, Mississauga, Canadá). A total of 40,000 events were acquired."}, "Jurkat [10]": {"system": "Jurkat", "assay": "Cell cycle analysis (PI) and cell count, Jurkat", "assay_type": "cell-based, human", "settings": "10 μM, 72 h", "protocol": "as §5, with “Kasumi-1 and Jurkat cells (10^5/mL) were treated with 10 (10 μM or 1 μM, respectively) for 72 h.” left out"}, "[11]": {"system": "CD11b expression in Kasumi-1 cells", "assay": "Cell differentiation by immunophenotyping (CD11b)", "assay_type": "cell-based, human", "settings": "Kasumi-1, 10 μM, 72 h", "protocol": "Cells (10^5/mL) were treated with 10 μM Compound 10 for 72 h. Then, the cells were collected and stained with CD11b-Cy7/PE (2 μL) (BD, USA). The measurements of fluorescence intensity were performed using an Accuri C6 flow cytometer (BD Biosciences, Mississauga, Canadá); 40,000 events were collected per sample. Results were expressed as GM fluorescence intensity."}, "HL-60": {"system": "HL-60", "design": "method as in doi:10.1016/j.cclet.2017.09.006", "settings": "acute myeloid leukemia cell line; read-out: IC50 against the HL-60 lineage; cited from earlier work"}}, "data": [{"smiles": "Cc1cc(O)c2c(c1)C(=O)c1cc(O)cc(O)c1C2=O", "note": "[Compound 3, emodin]", "values": [{"measurement": "IC50", "setting": "L1210 cells", "result": 35, "unit": "µM"}]}, {"smiles": "O=C1c2cc(CO)cc(O)c2C(=O)c2c1cc(O)c(Cl)c2O", "note": "[Compound 7, 2-chloro-1,3,8-trihydroxy-6-(hydroxymethyl)anthracene-9,10-dione]", "values": [{"measurement": "cell viability", "setting": "Kasumi-1 [1]", "result": "reduction in cell viability"}, {"measurement": "cell viability", "setting": "Jurkat [2]", "result": "reduction in cell viability"}, {"measurement": "activity against Jurkat", "setting": "Jurkat [3]", "result": "inactive"}, {"measurement": "activity against K-562", "setting": "K-562", "result": "inactive"}, {"measurement": "activity against Hela", "setting": "Hela", "result": "inactive"}]}, {"smiles": "Cc1cc(O)c2c(c1)C(=O)c1cc(O)c(Cl)c(O)c1C2=O", "note": "[Compound 8, 7-chloroemodin]", "values": [{"measurement": "cell viability", "setting": "Kasumi-1 [1]", "result": "reduction in cell viability"}, {"measurement": "cell viability", "setting": "Jurkat [2]", "result": "reduction in cell viability"}, {"measurement": "IC50", "setting": "[4]", "result": 12.6, "unit": "µM"}]}, {"smiles": "CSC12CC3=COC=CC(OC(C)=O)C3N1C(=O)C1(SC)CC3=COC=CC(OC(C)=O)C3N1C2=O", "note": "(stereo not shown) [Compound 9, bisdethiobis(methylthio)acetylaranotine]", "values": [{"measurement": "cell viability", "setting": "Kasumi-1 [1]", "result": "reduction in cell viability"}, {"measurement": "cell viability", "setting": "Jurkat [2]", "result": "reduction in cell viability"}]}, {"smiles": "C=CC(C)(C)c1[nH]c2ccccc2c1CC1NC(=O)C(Cc2c(C(C)(C)C=C)[nH]c3ccccc23)NC1=O", "note": "(stereo not shown) [Compound 10, fellutanine C]", "values": [{"measurement": "EC50", "setting": "Kasumi-1 [1]; Homo sapiens, Kasumi-1, concentration-response curve, 24 h, resazurin", "result": 50, "unit": "µM"}, {"measurement": "cell viability", "setting": "Kasumi-1 [1]", "result": "reduction in cell viability"}, {"measurement": "cell viability", "setting": "Jurkat [2]", "result": "reduction in cell viability"}, {"measurement": "EC50", "setting": "Jurkat [2]; Homo sapiens, concentration-response curve, 24 h, resazurin", "result": 50, "unit": "µM"}, {"measurement": "cytotoxicity effect on normal PBMC cells", "setting": "normal PBMC cells", "result": "did not show a cytotoxicity effect"}, {"measurement": "cell death mode (Annexin V-FITC and 7-AAD staining)", "setting": "Kasumi-1 [5]", "result": "predominant apoptosis staining (Anx-FITC+/7 AAD-)"}, {"measurement": "cell death mode (Annexin V-FITC and 7-AAD staining)", "setting": "Jurkat [6]", "result": "predominant double staining (late apoptosis and necrosis-like)"}, {"measurement": "cleaved-caspase-3", "setting": "[7]", "result": "increased cleaved-caspase-3"}, {"measurement": "cleaved-caspase-3", "setting": "[8]", "result": "increased cleaved-caspase-3"}, {"measurement": "cell proliferation (cell count)", "setting": "Kasumi-1 [9]", "result": "reduction in cell proliferation"}, {"measurement": "cell viability at the cell cycle concentration", "setting": "Kasumi-1 [9]", "result": "did not observe a reduction in cell viability"}, {"measurement": "cell cycle distribution", "setting": "Kasumi-1 [9]; PI staining", "result": "cell cycle arrest in G0/G1"}, {"measurement": "cell proliferation (cell count)", "setting": "Jurkat [10]", "result": "reduction in cell proliferation"}, {"measurement": "cell viability at the cell cycle concentration", "setting": "Jurkat [10]", "result": "did not observe a reduction in cell viability"}, {"measurement": "cell cycle distribution", "setting": "Jurkat [10]; PI staining", "result": "cell cycle arrest in G0/G1"}, {"measurement": "expression of mature myeloid marker CD11b", "setting": "[11]", "result": "did not produce an increase in the expression of CD11b"}, {"measurement": "IC50", "setting": "HL-60", "result": 9.34, "unit": "µM"}]}]}
